Source: PMC8954540, “A New Class of PSMA-617-Based Hybrid Molecules for Preoperative Imaging and Intraoperative Fluorescence Navigation of Prostate Cancer” (Pharmaceuticals, 2022)
Read-outs that look alike come from different tables or passages of the source. One block for each compound: values may come before it.

Experiments:
[1] = set-up: method as in PMID 16194449; conditions: free dye; cited from earlier work
LNCaP cells [2] = assay: Confocal fluorescence imaging, PSMA-positive cells; format: cell-based; conditions: 50 nmol/L, 60 min of internalization
Method: (§1) For confocal microscopy sample preparation, 10^5 cells/well were seeded in poly-L-lysine (Sigma-Aldrich, Darmstadt, Germany) coated 4-well chambered coverslips (Nunc Lab-Tek II chambered coverglasses, Thermo Fisher Scientific, Waltham, MA, USA, live cell imaging) or on poly-L-lysine (Sigma-Aldrich, Darmstadt, Germany) coated #1 coverslips (15 mm diameter, fixed cell imaging) and kept for 48 h at 37 °C in humidified air with 5% CO2. Subsequently, cells were incubated with 50 nmol/L PSMA-927in RPMI for 5/15/30/45/60 min at 37 °C in humidified air with 5% CO2. […]
(§2) All confocal data were acquired with a custom-built STED system similar to the one published by Gorlitz et al.. […] Laser powers were measured in front of the microscope body. […]
(§3) The integrated fluorescence intensity was extracted with a custom-written ImageJ routine. […] Multiplying this mask with the corresponding raw image generates an output image with which the integrated fluorescence intensity can be evaluated exclusively in the signal-carrying parts of the raw image without summing up background.

LNCaP cells [3] = assay: Cytotoxicity study by holographic time-lapse imaging; format: cell-based; conditions: 100 nmol/L, constant exposure for 48 h
Method: Potential cytotoxicity of PSMA-927 was assessed by analyzing the frequency of LNCaP cell division and the length of the LNCaP cell cycle via holographic time-lapse imaging. Cells were seeded in lumox® 24-well plates (Sarstedt, Nümbrecht, Germany) 48 h prior to the experiment and kept at 37 °C and 5% CO2. Imaging was performed with a HoloMonitor® M4 cytometer (PHI AB, Lund, Schweden) for a total period of 48 h at 37 °C and 5% CO2 with 15 min between image captures. Cell proliferation was followed in absence and in presence of 100 nmol/L PSMA-927. Data analysis was performed with the AppSuite software including cell segmentation, tracking of cells, identification of dividing cells, confluency measurement, and cell counting.

[4] = Spectral properties (absorption and emission); format: physicochemical; conditions: 10 μM in PBS (pH 7.4)
Method: Absorbance was measured with a Varian Cary 500 UV-VIS NIR Spectrophotometer (Agilent, Santa Clara, CA, USA) equipped with the software Cary 500 (EPROM Version 8.01, Agilent, Santa Clara, CA, USA) in the 200–1200 nm interval. Fluorescence emission was measured with a Varian Cary Eclipse Fluorescence-Spectrophotometer (Agilent, Santa Clara, CA, USA) equipped with the software Cary Eclipse (Version 1.1, Agilent, Santa Clara, CA, USA) with excitation at 710 nm in the 720–900 nm interval. PSMA-927 was diluted to 10 μM in PBS (pH 7.4) and measured in standard 1 cm quartz cuvettes.

LNCaP cells [5] = assay: Specific cell surface binding and internalization of 68Ga-labeled compounds; format: cell-based; conditions: 68Ga-labeled compounds; blockage with 500 µmol/L 2-PMPA; mean ± SD, n = 3
Method: (§4) LNCaP cells (CRL-1740; ATCC; PSMA-positive) and PC-3 cells (CRL-1435; ATCC; PSMA-negative) were cultured in RPMI medium (Thermo Fisher Scientific, Waltham, MA, USA) supplemented with 10% fetal calf serum and 2 mmol/L L-glutamine (all from (Thermo Fisher Scientific, Waltham, MA, USA) ) at 37 °C in humidified air with 5% CO2. Cells were harvested using trypsin-ethylenediaminetetraacetic acid (trypsin-EDTA; 0.25% trypsin, 0.02% EDTA, Invitrogen, Waltham, MA, USA). Cell line authentication was regularly performed. Binding affinities and internalization profiles of the ^68Ga-labeled compounds were determined in competitive cell binding assays and internalization experiments as described previously.

PSMA = target: T1, PSMA (Homo sapiens, UniProt Q04609); assay: Competitive cell binding assay (radioligand 68Ga-PSMA-10); conditions: free ligands, mean ± SD, n = 3
T1 construct: LNCaP cells (CRL-1740; ATCC; PSMA-positive); host or cells: LNCaP cells
Method: as §4

[6] = Lipophilicity, logD at pH 7.4 in n-octanol/PBS; format: physicochemical; conditions: 68Ga-labeled ligand
Method: The synthesis was performed according to previously published protocols. Details on synthesis and analytical data of the compounds are provided in the Supplementary Materials (Compound Synthesis and Analytical Characterization). […] Using 30% NaOH (Sigma-Aldrich, Darmstadt, Germany) and 10% NaOH (Sigma-Aldrich, Darmstadt, Germany), the pH was adjusted to 3.8. The reaction mixture was incubated at 98 °C for 5–10 min. The radiochemical yield was analyzed by reversed-phase high-performance liquid chromatography (RP-HPLC) or reversed-phase thin-layer chromatography (RP-TLC, 60 RP-18 F254S, Sigma-Aldrich, Darmstadt, Germany) with 0.5 M ammonium acetate/methanol (1:1) as the mobile phase. The lipophilicity of the ^68Ga-labeled compounds was determined using the 2-phase system n-octanol and PBS.

PC-3 cells = assay: Confocal fluorescence imaging, PSMA-negative cells; format: cell-based; conditions: PSMA-negative PC-3 cells, 50 nmol/L
Method: as §1, §2, §3

LNCaP cells [7] = tested on: LNCaP cells; set-up: method as in PMID 26878194; conditions: cited from earlier work
[8] = set-up: method as in PMID 25883127; conditions: n-octanol/PBS; cited from earlier work
[9] = tested on: LNCaP-tumor bearing BALB/c nu/nu mice; conditions: 1 h p.i.; cited from earlier work
[10] = set-up: method as in PMID 29752180; conditions: twelve weeks after the first dose; cited from earlier work
[11] = set-up: method as in PMID 34161051; conditions: 831 patients; cited from earlier work

T1 sequence (Q04609 whole entry): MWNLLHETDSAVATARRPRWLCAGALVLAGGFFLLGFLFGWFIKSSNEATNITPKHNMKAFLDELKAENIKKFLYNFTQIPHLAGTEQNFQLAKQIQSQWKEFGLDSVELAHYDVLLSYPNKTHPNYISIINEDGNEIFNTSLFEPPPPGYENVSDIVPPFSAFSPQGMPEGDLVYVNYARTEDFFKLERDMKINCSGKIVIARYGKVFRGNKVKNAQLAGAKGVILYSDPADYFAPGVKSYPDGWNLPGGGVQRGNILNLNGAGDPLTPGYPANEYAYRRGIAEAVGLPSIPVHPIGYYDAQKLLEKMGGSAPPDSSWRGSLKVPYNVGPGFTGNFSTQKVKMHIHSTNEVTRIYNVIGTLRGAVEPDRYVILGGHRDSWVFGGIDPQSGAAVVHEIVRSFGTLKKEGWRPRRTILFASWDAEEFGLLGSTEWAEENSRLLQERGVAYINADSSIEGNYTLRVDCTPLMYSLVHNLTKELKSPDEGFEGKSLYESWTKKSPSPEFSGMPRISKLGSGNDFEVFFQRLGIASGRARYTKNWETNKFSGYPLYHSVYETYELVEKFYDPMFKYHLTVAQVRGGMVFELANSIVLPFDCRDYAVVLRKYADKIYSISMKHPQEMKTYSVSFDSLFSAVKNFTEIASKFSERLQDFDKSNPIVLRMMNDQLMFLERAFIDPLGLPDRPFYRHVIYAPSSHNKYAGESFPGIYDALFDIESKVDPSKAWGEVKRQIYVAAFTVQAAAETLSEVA

Compound: CC1(C)C(=CC=C2CCCC(C=CC3=[N+](CCCCCC(=O)[O-])c4ccc(S(=O)(=O)[O-])cc4C3(C)C)=C2Oc2ccc(S(=O)(=O)[O-])cc2)N(CCCCS(=O)(=O)[O-])c2ccc(S(=O)(=O)[O-])cc21.[Na+].[Na+].[Na+].[Na+] [IRDye800CW]
absorption maximum [1]: 775 nm
emission maximum [1]: 796 nm

absorption maximum [4]: 778 nm
emission maximum ([4]; excitation at 710 nm): 796 nm
Ki (PSMA; Ki=IC50/(1+cradioligand/Kd)): 13.2 ± 5.25 nM
IC50 (PSMA; radioligand 68Ga-PSMA-10, 0.75 nmol/L): 15.9 ± 5.46 nM
Lipophilicity logDpH 7.4 n-octanol/PBS [6]: -2.96 ± 0.06
Compound: CC1(C)C(=CC=C2CCCC(C=CC3=[N+](CCCCCC(=O)NCCCCC(NC(=O)CN4CCN(CC(=O)O)CCN(CC(=O)O)CCN(CC(=O)O)CC4)C(=O)NCC4CCC(C(=O)NC(Cc5ccc6ccccc6c5)C(=O)NCCCCC(NC(=O)NC(CCC(=O)O)C(=O)O)C(=O)O)CC4)c4ccc(S(=O)(=O)O)cc4C3(C)C)=C2Oc2ccc(S(=O)(=O)O)cc2)N(CCCCS(=O)(=O)O)c2ccc(S(=O)(=O)O)cc21 (stereo not drawn) [PSMA-927, Glu-urea-Lys-2-Nal-Chx-Lys(IRDye800CW)-DOTA]
integrated fluorescence intensity fixed (LNCaP cells [2]; PFA-fixed cells): 3021 ± 863 counts
integrated fluorescence intensity live (LNCaP cells [2]; live cells): 11,618 ± 5412 counts
cytotoxicity (cell count, confluency, frequency of cell division, cell cycle length) (LNCaP cells [3]): did not reveal any evidence of cytotoxicity
Specifically Cell Surface Bound (LNCaP cells [5]): 25.51 ± 9.73 %AR/10^5 Cells
Specifically Internalized (LNCaP cells [5]): 27.64 ± 12.80 %AR/10^5 Cells
fluorescence signal increase (PC-3 cells): no significant fluorescence signal increase

Compound: O=C([O-])CN1CCN(CC(=O)[O-])CCN(CC(=O)NCC2CCC(C(=O)NC(Cc3ccc4ccccc4c3)C(=O)NCCCCC(NC(=O)NC(CCC(=O)O)C(=O)O)C(=O)O)CC2)CCN(CC(=O)[O-])CC1.[68Ga+3] (stereo not drawn) [[^68Ga]Ga-PSMA-617]
cell surface binding (LNCaP cells [7]): 11.40 ± 6.60 %ID/10^5 LNCaP cells
specific internalization (LNCaP cells [7]): 16.17 ± 3.66 %ID/10^5 LNCaP cells
logDpH 7.4 [8]: –2.00
tumor uptake [9]: 8.47 ± 4.09 % ID/g

Compound: O=C([O-])CN1CCN(CC(=O)[O-])CCN(CC(=O)NCC2CCC(C(=O)NC(Cc3ccc4ccccc4c3)C(=O)NCCCCC(NC(=O)NC(CCC(=O)O)C(=O)O)C(=O)O)CC2)CCN(CC(=O)[O-])CC1.[177Lu+3] (stereo not drawn) [[^177Lu]Lu-PSMA-617]
patients with PSA decline greater than 50% [10]: half of the patients
patients with PSA decline greater than 80% [10]: 27%
overall survival [11]: significantly improves overall survival
tolerability of the treatment regimen [11]: very well-tolerated
